{"source": "ChEMBL document CHEMBL1154346", "about": "(Bioorg Med Chem Lett, 2009)", "key": {"[1]": {"target": "Voltage-gated inwardly rectifying potassium channel KCNH2 (Homo sapiens, UniProt Q12809)", "sequence (Q12809 whole entry)": "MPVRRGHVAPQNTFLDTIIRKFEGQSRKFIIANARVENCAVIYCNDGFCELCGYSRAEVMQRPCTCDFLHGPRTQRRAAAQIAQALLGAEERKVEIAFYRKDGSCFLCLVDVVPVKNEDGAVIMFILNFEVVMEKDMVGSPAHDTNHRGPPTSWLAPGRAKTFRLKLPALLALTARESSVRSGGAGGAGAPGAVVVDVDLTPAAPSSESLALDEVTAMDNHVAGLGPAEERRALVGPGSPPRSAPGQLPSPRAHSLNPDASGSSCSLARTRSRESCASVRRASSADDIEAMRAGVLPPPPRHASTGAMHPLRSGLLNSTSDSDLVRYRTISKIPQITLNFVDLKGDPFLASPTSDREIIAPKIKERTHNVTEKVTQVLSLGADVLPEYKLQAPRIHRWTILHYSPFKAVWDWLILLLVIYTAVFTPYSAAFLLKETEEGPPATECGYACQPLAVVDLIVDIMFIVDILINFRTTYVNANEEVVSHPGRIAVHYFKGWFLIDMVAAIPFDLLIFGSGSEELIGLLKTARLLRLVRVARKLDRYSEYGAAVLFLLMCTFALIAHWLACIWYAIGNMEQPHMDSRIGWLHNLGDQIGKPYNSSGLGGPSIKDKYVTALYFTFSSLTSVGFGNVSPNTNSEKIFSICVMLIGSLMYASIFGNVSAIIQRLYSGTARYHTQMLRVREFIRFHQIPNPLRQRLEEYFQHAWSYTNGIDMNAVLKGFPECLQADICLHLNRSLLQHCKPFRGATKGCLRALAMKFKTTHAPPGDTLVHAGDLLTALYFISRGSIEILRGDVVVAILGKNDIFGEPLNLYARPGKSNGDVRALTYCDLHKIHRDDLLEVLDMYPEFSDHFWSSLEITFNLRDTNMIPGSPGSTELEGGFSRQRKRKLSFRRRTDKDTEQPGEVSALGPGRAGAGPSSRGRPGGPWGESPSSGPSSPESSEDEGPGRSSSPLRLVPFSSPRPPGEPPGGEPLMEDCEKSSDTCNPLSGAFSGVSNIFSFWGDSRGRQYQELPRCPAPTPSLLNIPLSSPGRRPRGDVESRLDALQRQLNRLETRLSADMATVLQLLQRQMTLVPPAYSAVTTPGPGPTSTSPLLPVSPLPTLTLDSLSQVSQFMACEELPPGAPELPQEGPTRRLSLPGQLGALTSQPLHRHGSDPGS", "assay": "Displacement of [3H]dofetilide from human ERG expressed in HEK293 cells", "format": "cell-based"}, "[2]": {"tested_on": "Canis familiaris", "assay": "Cardiotoxicity in conscious dog assessed as prolongation of QT interval", "format": "toxicity, organism-based, Canis lupus familiaris", "conditions": "in vivo"}, "[3]": {"assay": "Toxicity in iv dosed mouse assessed as loss of righting reflex", "format": "organism-based", "conditions": "in vivo, read-out: HD50 (the source's name)"}}, "note": "pKi: −log10 of the molar value.", "data": [{"smiles": "CNC(=O)Cn1c(=O)n(C2CCN(CCC(Oc3cc(OC)ccc3C)C(C)C)CC2)c2ccccc21", "note": "(racemic)", "values": [{"measurement": "pKi", "setting": "[1]", "result": 7.25}, {"measurement": "Activity", "setting": "[2]", "result": 10, "unit": "%"}, {"measurement": "TD50", "setting": "[3]", "result": 4.7, "unit": "µmol/kg"}]}]}
